{"source": "ChEMBL document CHEMBL5385971", "about": "“Identification of novel phenylalanine derivatives bearing a hydroxamic acid moiety as potent quorum sensing inhibitors” (RSC Med Chem, 2024)", "key": {"[1]": {"test": "Inhibition of quorum sensing system in Pseudomonas aeruginosa transfected with lasB-gfp incubated for 20 hrs by fluorescence based multilabel plate reader analysis"}, "[2]": {"system": "Pseudomonas aeruginosa", "test": "Growth inhibition of Pseudomonas aeruginosa transfected with lasB-gfp", "format": "functional, organism-based"}, "[3]": {"system": "Pseudomonas aeruginosa", "test": "Antibiofilm activity against Pseudomonas aeruginosa PA14 assessed as inhibition of biofilm biomass at 30 uM incubated for 48 hrs by crystal violet staining based analysis relative to control", "format": "functional"}, "[4]": {"system": "Chromobacterium violaceum", "test": "Inhibition of Chromobacterium violaceum ATCC 31532 quorum sensing receptor CviR at 30 uM incubated for 24 hrs by absorbance based microplate reader analysis relative to control"}, "[5]": {"test": "Potency index, ratio of 4NPO IC50 to test compound IC50 for inhibition of quorum sensing system in Pseudomonas aeruginosa transfected with lasB-gfp incubated for 20 hrs by fluorescence based multilabel plate reader analysis"}, "[6]": {"system": "Chromobacterium violaceum", "test": "Inhibition of Chromobacterium violaceum ATCC 31532 quorum sensing receptor CviR assessed as fold change at 30 uM incubated for 24 hrs by absorbance based microplate reader analysis relative to 4NPO"}}, "note": "Calls of active or inactive are those of the source. No cut-off for these calls is given here."}
{"smiles": "O=C(N[C@@H](Cc1ccccc1)C(=O)NO)c1ccc(Cl)c(Cl)c1", "values": [{"measurement": "IC50", "setting": "[1]", "result": "> 100", "unit": "µM"}, {"measurement": "growth inhibition (GI)", "setting": "[2]", "result": "inactive"}, {"measurement": "inhibition at 30 µM", "setting": "[3]", "result": "< 1", "unit": "%"}, {"measurement": "inhibition", "setting": "[4]", "result": 35, "unit": "%"}]}
{"smiles": "O=C(N[C@@H](Cc1ccccc1)C(=O)NO)c1ccc(C2CCCCC2)cc1", "values": [{"measurement": "IC50", "setting": "[1]", "result": 9.44, "unit": "µM"}, {"measurement": "growth inhibition (GI)", "setting": "[2]", "result": "inactive"}, {"measurement": "inhibition at 30 µM", "setting": "[3]", "result": 55, "unit": "%"}, {"measurement": "inhibition", "setting": "[4]", "result": 65, "unit": "%"}]}
{"smiles": "O=C(Nc1ccccc1)Nc1ccc(C(=O)N[C@@H](Cc2ccccc2)C(=O)NO)cc1", "values": [{"measurement": "IC50", "setting": "[1]", "result": "> 100", "unit": "µM"}, {"measurement": "growth inhibition (GI)", "setting": "[2]", "result": "inactive"}, {"measurement": "inhibition at 30 µM", "setting": "[3]", "result": "< 1", "unit": "%"}, {"measurement": "inhibition", "setting": "[4]", "result": "< 1", "unit": "%"}]}
{"smiles": "Cc1ccc(S(=O)(=O)Nc2ccc(C(=O)N[C@@H](Cc3ccccc3)C(=O)NO)cc2)cc1", "values": [{"measurement": "IC50", "setting": "[1]", "result": 7.12, "unit": "µM"}, {"measurement": "Ratio IC50", "setting": "[5]", "result": 4}, {"measurement": "growth inhibition (GI)", "setting": "[2]", "result": "inactive"}, {"measurement": "inhibition at 30 µM", "setting": "[3]", "result": 75, "unit": "%"}, {"measurement": "inhibition", "setting": "[4]", "result": 79, "unit": "%"}, {"measurement": "fold change (FC)", "setting": "[6]", "result": 1.5}]}
{"smiles": "O=C(N[C@@H](Cc1ccccc1)C(=O)NO)c1cc(Cl)ccc1F", "values": [{"measurement": "IC50", "setting": "[1]", "result": 10, "unit": "µM"}, {"measurement": "growth inhibition (GI)", "setting": "[2]", "result": "inactive"}, {"measurement": "inhibition at 30 µM", "setting": "[3]", "result": 40, "unit": "%"}, {"measurement": "inhibition", "setting": "[4]", "result": 58, "unit": "%"}]}
{"smiles": "O=C(N[C@@H](Cc1ccccc1)C(=O)NO)c1ccc2ccccc2n1", "values": [{"measurement": "IC50", "setting": "[1]", "result": 50.2, "unit": "µM"}, {"measurement": "growth inhibition (GI)", "setting": "[2]", "result": "inactive"}, {"measurement": "inhibition at 30 µM", "setting": "[3]", "result": "< 1", "unit": "%"}, {"measurement": "inhibition", "setting": "[4]", "result": "< 1", "unit": "%"}]}
{"smiles": "O=C(Nc1ccccc1)c1ccc(C(=O)N[C@@H](Cc2ccccc2)C(=O)NO)cc1", "values": [{"measurement": "IC50", "setting": "[1]", "result": 92.3, "unit": "µM"}, {"measurement": "growth inhibition (GI)", "setting": "[2]", "result": "inactive"}, {"measurement": "inhibition at 30 µM", "setting": "[3]", "result": 11, "unit": "%"}, {"measurement": "inhibition", "setting": "[4]", "result": "< 1", "unit": "%"}]}
{"smiles": "O=C(N[C@@H](Cc1ccccc1)C(=O)NO)c1ccc(COc2ccccc2)cc1", "values": [{"measurement": "IC50", "setting": "[1]", "result": 83.5, "unit": "µM"}, {"measurement": "growth inhibition (GI)", "setting": "[2]", "result": "inactive"}, {"measurement": "inhibition at 30 µM", "setting": "[3]", "result": 20, "unit": "%"}, {"measurement": "inhibition", "setting": "[4]", "result": 11, "unit": "%"}]}
{"smiles": "O=C(Nc1ccc(Cl)cc1)c1ccc(C(=O)N[C@@H](Cc2ccccc2)C(=O)NO)cc1", "values": [{"measurement": "IC50", "setting": "[1]", "result": "> 100", "unit": "µM"}, {"measurement": "growth inhibition (GI)", "setting": "[2]", "result": "inactive"}, {"measurement": "inhibition at 30 µM", "setting": "[3]", "result": "< 1", "unit": "%"}, {"measurement": "inhibition", "setting": "[4]", "result": "< 1", "unit": "%"}]}
